Experimental data: US6355799B1, “Substituted benzene compounds, process for their preparation, and herbicidal and defoliant compositions containing them” (ISK Americas Incorporated, priority 1997, dated 2002)

Key:
Type in all cases: in vivo
[1] = tested on: field corn (Zea mays L., var. Dekalb 535, CORN); experiment: Pre-emerge test, crop safety; conditions: pre-emerge, rated 14 days after application, 0 = no damage, 100 = complete death
Procedure, shortened: (§1)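 Visual ratings on a 0-100 scale (0 no damage, 100 all plants dead) were taken at 14 days after treatment. Rates of 15-1000 g ai/ha in acetone, 187 l/ha, were sprayed onto soil one day after planting (pre-emerge) or onto 2-3 leaf plants with 0.25% v/v surfactant (post-emerge).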

[2] = tested on: upland rice (Oryza sp., var. Tebonnet, RICE); experiment: Pre-emerge test, crop safety; conditions: pre-emerge, rated 14 days after application, 0 = no damage, 100 = complete death
Procedure, shortened: as §1

[3] = tested on: redroot pigweed (Amaranthus retroflexus, AMARE); experiment: Pre-emerge test, greenhouse herbicide activity screening; conditions: pre-emerge, rated 14 days after application, 0 = no damage, 100 = complete death
Procedure, shortened: (§2)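 Compounds in acetone were track-sprayed at 15-1000 g ai/ha (187 l/ha) on sandy loam pots: pre-emerge one day after seeding, post-emerge at 2-3 leaf stage with 0.25% v/v non-ionic surfactant. Phytotoxicity was rated 14 days later on a 0 (no damage) to 100 (complete death) scale.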

[4] = tested on: field corn (Zea mays L., var. Dekalb 535, CORN); experiment: Post-emerge test, crop safety; conditions: phytotoxicity rating 0-100 (0 no damage, 100 complete death), 14 days after application
Procedure, shortened: as §2

[5] = tested on: upland rice (Oryza sp., var. Tebonnet, RICE); experiment: Post-emerge test, crop safety; conditions: phytotoxicity rating 0-100 (0 no damage, 100 complete death), 14 days after application
Procedure, shortened: as §2

[6] = tested on: common ragweed (Ambrosia artemisizfolia L., AMBEL); experiment: Post-emerge test, greenhouse herbicide activity screening; conditions: phytotoxicity rating 0-100 (0 no damage, 100 complete death), 14 days after application
Procedure, shortened: (§3)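 Plants grown in 10 cm pots of sandy loam mix received acetone-dissolved compounds through a moving flat-fan nozzle. Doses ranged from 15 to 1000 g ai/ha. Pre-emerge pots were seeded one day earlier, post-emerge pots 8–21 days earlier. Fourteen days on, each pot was graded 0–100 for damage.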

[7] = tested on: redroot pigweed (Amaranthus retroflexus, AMARE); experiment: as above; conditions: phytotoxicity rating 0-100 (0 no damage, 100 complete death), 14 days after application
Procedure, shortened: as §3

[8] = tested on: johnsongrass (Sorghum halepense, SORHA); experiment: as above; conditions: phytotoxicity rating 0-100 (0 no damage, 100 complete death), 14 days after application
Procedure, shortened: as §3

[9] = tested on: barnyardgrass (Echinochloa crus-galli, ECHCG); experiment: as above; conditions: phytotoxicity rating 0-100 (0 no damage, 100 complete death), 14 days after application
Procedure, shortened: as §3

[10] = tested on: sicklepod (Cassia obtusifolia, CASOB); experiment: as above; conditions: phytotoxicity rating 0-100 (0 no damage, 100 complete death), 14 days after application
Procedure, shortened: as §3

[11] = tested on: ivyleaf morningglory (Ipomoea hederacea, IPOHE); experiment: as above; conditions: phytotoxicity rating 0-100 (0 no damage, 100 complete death), 14 days after application
Procedure, shortened: as §3

[12] = tested on: lambsquarters (Chenopodium album, CHEAL); experiment: as above; conditions: phytotoxicity rating 0-100 (0 no damage, 100 complete death), 14 days after application
Procedure, shortened: as §3

[13] = tested on: large crabgrass (Digitaria sanguinalis, DIGSA); experiment: as above; conditions: phytotoxicity rating 0-100 (0 no damage, 100 complete death), 14 days after application
Procedure, shortened: as §3

[14] = tested on: velvetleaf (Abutilon theophrasti, ABUTH); experiment: as above; conditions: phytotoxicity rating 0-100 (0 no damage, 100 complete death), 14 days after application
Procedure, shortened: as §3

[15] = tested on: common ragweed (Ambrosia artemisizfolia L., AMBEL); experiment: Pre-emerge test, greenhouse herbicide activity screening; conditions: pre-emerge, rated 14 days after application, 0 = no damage, 100 = complete death
Procedure, shortened: as §2

[16] = tested on: johnsongrass (Sorghum halepense, SORHA); experiment: as above; conditions: pre-emerge, rated 14 days after application, 0 = no damage, 100 = complete death
Procedure, shortened: as §2

[17] = tested on: barnyardgrass (Echinochloa crus-galli, ECHCG); experiment: as above; conditions: pre-emerge, rated 14 days after application, 0 = no damage, 100 = complete death
Procedure, shortened: as §2

[18] = tested on: sicklepod (Cassia obtusifolia, CASOB); experiment: as above; conditions: pre-emerge, rated 14 days after application, 0 = no damage, 100 = complete death
Procedure, shortened: as §2

[19] = tested on: ivyleaf morningglory (Ipomoea hederacea, IPOHE); experiment: as above; conditions: pre-emerge, rated 14 days after application, 0 = no damage, 100 = complete death
Procedure, shortened: as §2

[20] = tested on: lambsquarters (Chenopodium album, CHEAL); experiment: as above; conditions: pre-emerge, rated 14 days after application, 0 = no damage, 100 = complete death
Procedure, shortened: as §2

[21] = tested on: large crabgrass (Digitaria sanguinalis, DIGSA); experiment: as above; conditions: pre-emerge, rated 14 days after application, 0 = no damage, 100 = complete death
Procedure, shortened: as §2

[22] = tested on: velvetleaf (Abutilon theophrasti, ABUTH); experiment: as above; conditions: pre-emerge, rated 14 days after application, 0 = no damage, 100 = complete death
Procedure, shortened: as §2

[23] = tested on: green foxtail (Setaria viridis, SETVI); experiment: as above; conditions: pre-emerge, rated 14 days after application, 0 = no damage, 100 = complete death
Procedure, shortened: as §2

For CCc1ccc(C(=O)Nc2c(OC)c(Cl)cc(F)c2-n2c(=O)cc(C(F)(F)F)n(C)c2=O)cc1 [2-27], the “Pre-emerge crop damage CORN (phytotoxicity rating, scale 0-100)” value ([1]; 63 g ai/ha) was 20, the “Pre-emerge crop damage CORN (phytotoxicity rating, scale 0-100)” value ([1]; 250 g ai/ha) was 90 and the “Pre-emerge crop damage RICE (phytotoxicity rating, scale 0-100)” value ([2]; 63 g ai/ha) was 70. For the same compound, the “Pre-emerge crop damage RICE (phytotoxicity rating, scale 0-100)” value ([2]; 250 g ai/ha) was 90, the “Pre-emerge Herbicidal Activity AMARE (phytotoxicity rating, scale 0-100)” value ([3]; 63 g ai/ha) was 100 and the “Pre-emerge Herbicidal Activity AMARE (phytotoxicity rating, scale 0-100)” value ([3]; 250 g ai/ha) was 100. The “Post-emerge Herbicidal Activity CORN (crop damage)” value ([4]; 63 g ai/ha) was 50, the “Post-emerge Herbicidal Activity CORN (crop damage)” value ([4]; 250 g ai/ha) was 95 and the “Post-emerge Herbicidal Activity RICE (crop damage)” value ([5]; 63 g ai/ha) was 60. For the same compound, the “Post-emerge Herbicidal Activity RICE (crop damage)” value ([5]; 250 g ai/ha) was 95, the “Post-emerge Herbicidal Activity AMBEL” value ([6]; 63 g ai/ha) was 60 and the “Post-emerge Herbicidal Activity AMBEL” value ([6]; 250 g ai/ha) was 90. The “Post-emerge Herbicidal Activity AMARE” value ([7]; 63 g ai/ha) was 100, the “Post-emerge Herbicidal Activity AMARE” value ([7]; 250 g ai/ha) was 100 and the “Post-emerge Herbicidal Activity SORHA” value ([8]; 63 g ai/ha) was 20. The “Post-emerge Herbicidal Activity SORHA” value ([8]; 250 g ai/ha) was 85, the “Post-emerge Herbicidal Activity ECHCG” value ([9]; 63 g ai/ha) was 0 and the “Post-emerge Herbicidal Activity ECHCG” value ([9]; 250 g ai/ha) was 80. For the same compound, the “Post-emerge Herbicidal Activity CASOB” value ([10]; 63 g ai/ha) was 50, the “Post-emerge Herbicidal Activity CASOB” value ([10]; 250 g ai/ha) was 90 and the “Post-emerge Herbicidal Activity IPOHE” value ([11]; 63 g ai/ha) was 90. The “Post-emerge Herbicidal Activity IPOHE” value ([11]; 250 g ai/ha) was 100, the “Post-emerge Herbicidal Activity CHEAL” value ([12]; 63 g ai/ha) was 90 and the “Post-emerge Herbicidal Activity CHEAL” value ([12]; 250 g ai/ha) was 100. For the same compound, the “Post-emerge Herbicidal Activity DIGSA” value ([13]; 63 g ai/ha) was 10, the “Post-emerge Herbicidal Activity DIGSA” value ([13]; 250 g ai/ha) was 70 and the “Post-emerge Herbicidal Activity ABUTH” value ([14]; 63 g ai/ha) was 100. For the same compound, the “Post-emerge Herbicidal Activity ABUTH” value ([14]; 250 g ai/ha) was 100, the “Pre-emerge Herbicidal Activity AMBEL (phytotoxicity rating, scale 0-100)” value ([15]; 63 g ai/ha) was 100 and the “Pre-emerge Herbicidal Activity AMBEL (phytotoxicity rating, scale 0-100)” value ([15]; 250 g ai/ha) was 100. The “Pre-emerge Herbicidal Activity SORHA (phytotoxicity rating, scale 0-100)” value ([16]; 63 g ai/ha) was 30, the “Pre-emerge Herbicidal Activity SORHA (phytotoxicity rating, scale 0-100)” value ([16]; 250 g ai/ha) was 80 and the “Pre-emerge Herbicidal Activity ECHCG (phytotoxicity rating, scale 0-100)” value ([17]; 63 g ai/ha) was 50. For the same compound, the “Pre-emerge Herbicidal Activity ECHCG (phytotoxicity rating, scale 0-100)” value ([17]; 250 g ai/ha) was 100, the “Pre-emerge Herbicidal Activity CASOB (phytotoxicity rating, scale 0-100)” value ([18]; 63 g ai/ha) was 60 and the “Pre-emerge Herbicidal Activity CASOB (phytotoxicity rating, scale 0-100)” value ([18]; 250 g ai/ha) was 100. For the same compound, the “Pre-emerge Herbicidal Activity IPOHE (phytotoxicity rating, scale 0-100)” value ([19]; 63 g ai/ha) was 80, the “Pre-emerge Herbicidal Activity IPOHE (phytotoxicity rating, scale 0-100)” value ([19]; 250 g ai/ha) was 100 and the “Pre-emerge Herbicidal Activity CHEAL (phytotoxicity rating, scale 0-100)” value ([20]; 63 g ai/ha) was 100. The “Pre-emerge Herbicidal Activity CHEAL (phytotoxicity rating, scale 0-100)” value ([20]; 250 g ai/ha) was 100, the “Pre-emerge Herbicidal Activity DIGSA (phytotoxicity rating, scale 0-100)” value ([21]; 63 g ai/ha) was 95 and the “Pre-emerge Herbicidal Activity DIGSA (phytotoxicity rating, scale 0-100)” value ([21]; 250 g ai/ha) was 100. For the same compound, the “Pre-emerge Herbicidal Activity ABUTH (phytotoxicity rating, scale 0-100)” value ([22]; 63 g ai/ha) was 100, the “Pre-emerge Herbicidal Activity ABUTH (phytotoxicity rating, scale 0-100)” value ([22]; 250 g ai/ha) was 100 and the “Pre-emerge Herbicidal Activity SETVI (phytotoxicity rating, scale 0-100)” value ([23]; 63 g ai/ha) was 100. For the same compound, the “Pre-emerge Herbicidal Activity SETVI (phytotoxicity rating, scale 0-100)” value ([23]; 250 g ai/ha) was 100.
